The source of these data is patent publication US20070032453A1, “ADJUVANT CHEMOTHERAPY FOR ANAPLASTIC GLIOMAS” (Oklahoma Medical Research Foundation, priority 2005, published 2007).

“Also recorded” adds a separate entry of the source.

Data set [1] has as its system C6 gliomas. Nature of the data set: MR angiography of C6 gliomas (angiogenesis, arterial blood volumes). It is filed as in vivo, rat. As to the method: Angiography. Coronal slices are acquired by a FLASH (fast low angle shot) method with a volume of interest of 2.7×1.7×1.2 cm^3, an echo time of 2.3 ms, a repetition time of 25 ms and a flip angle of 25° for an acquisition time of 27 min. A MIP (maximum intensity projection) technique was then applied to the data to obtain a 3D-angiography. Angiography was used to visualize new blood vessel formation, i.e., angiogenesis.
The method used was quantitative analysis (using a Mathematica-based program developed in our laboratory) of arterial signal intensities from in vivo MR angiography data. Glioma region arterial blood volumes were compared to blood volumes in the contralateral control cerebral hemisphere.

For data set [2], the system named is C6 gliomas. Nature of the data set: C6 glioma growth in rats monitored by T2-weighted MRI (tumor volumes, ImageJ). It is filed as in vivo, rat. As to the method: (§1) Cells injection. Three-month-old male Fischer 344 rats (250-350 g) were fed a choline-deficient diet. Each animal was anesthetized (3% isoflurane at 2.5 L/mn oxygen) and placed on a stereotaxic device (Stoelting, USA). The skin of the head was cleaned and incised. A hole was drilled through the skull 2 mm anterior and 2 mm lateral to the bregma, in the right-hand side of the skull. C6, 9L/LacZ or F98 cells (10^6 in 10 μL cell culture media) in a ultra-low gelling temperature agarose are injected in the cortex at a 3 mm-depth at a rate of 2 μL/mn. A waiting time of 2 min was implemented following injection and bone wax was put in the burr-hole to prevent any reflux. The wound was sutured and covered with surgical glue. The surgery was performed in sterile conditions. The syringes containing the C6, 9L/LacZ or F98 cells are kept at 37° C. until the moment of use.
PBN treatment. […] The treatment was continuous and was started at different time points. […] Some rats were not treated and served as controls (n=5).
MRI experiments. MRI experiments were performed on a 7 Tesla-30 cm horizontal bore magnet (Bruker BioSpin MRI Gmbh, Germany) at day 6-10 after the cells were injected and then every 2-3 days until the death of the rat. The animal was anesthetized (1.5% isoflurane at 1.5 L/mn oxygen) and placed in a MR probe (Bruker BioSpin MRI Gmbh, Germany). A head coil (Bruker BioSpin MRI Gmbh, Germany) was put on its head and the brain was localized.
(§2) Tumor growth monitoring. T1/T2-weighted images were obtained by a double-echo multi-slice spin echo method. Twenty-four axial slices of 1 mm thickness with an interslice distance of 1 mm were taken with a repetition time of 2369.64 ms and echo times of 17.41 ms and 63.85 ms for an acquisition time of 20 min. Tumor volumes were determined with the software ImageJ 1.32j (NIH, USA).
A T2-weighted morphological MRI method was used.

For data set [3], the system named is C6 gliomas. Kind of data set: Histology (H&E) of C6 glioma rat brain. It is filed as in vivo. Particulars: C6 rat glioma treated with PBN. From the text:
Note that PBN-treated C6 glioma rat brain has neuronal cells that appear similar to control rat brain. Untreated C6 glioma depicts malignant cells that are atypical in appearance (grade II to III) with few mitotic and apoptotic figures being present.
Conclusion. […] The malignant cells in the large neoplastic mass (FIG. 8B) were moderately atypical in appearance (grade II to III) with few mitotic and apoptotic figures being present. Large central areas of the mass […]) were also necrotic.

Data set [4] deals with HIF-1α. Nature of the data set: IGF-1 induced HIF-1α expression in HCT-116 cells. It is filed as cell-based. Conditions: HCT116 human colon cancer cells, 20% O2. An excerpt: (§3) The band densities of HIF-1α were normalized by the bands of CoCl2 which was used as the positive control.
(§4) HIF-1α is a major transactivation factor which is central to the induction of VEGF as well as iNOS and many other genes very important in the development of cancer. VEGF is very important in angiogenesis essential for tumor growth and is a major target of several anti-cancer companies.

Data set [5] relates to HIF-1α. Kind of data set: IGF-1 induced HIF-1α expression in Hepa 1-6 cells. It is filed as cell-based. Particulars: mouse hepatocellular carcinoma cell line (Hepa 1-6).
Excerpt: as §3, §4

In data set [6] the test system is C6 gliomas. Kind of data set: Image-guided MR spectroscopy, metabolite ratios in C6 glioma. It is filed as in vivo, rat. Particulars: C6 glioma rats treated with PBN. The protocol: MRS experiments. Water suppression was performed by a CHESS (chemical shift suppression) method. A spectrum was acquired in a […] voxel in the tumor region and in the contralateral control side of the brain, by using PRESS (point resolved spectroscopy) with a repetition time of 3000 ms, an echo time of 21.34 ms for an acquisition time of 13 min. An outer volume suppression tool was used to get rid of the 5 mm thick surrounding signal around the voxel. The metabolite peaks were assigned as follows, based on previous literature (Fan et al., 2004; Griffin et al., 2003): NAA at 2.02 ppm, Cr at 3.03 ppm, Cho at 3.25 ppm and mobile lipids at 1.33 ppm (methylene group) and 0.9 ppm (methyl group). Peak areas were calculated in reference to Cr peak and relative ratios were determined: NAA/Cho, NAA/Cr, Cho/Cr and Lipids/Cr. A decrease in NAA levels and an increase in lipids are indicative of the presence of a glioma (Ishimaru et al., 2001).
MR spectral peak areas were measured using the Bruker XWIN NMR peak intragration software package.

For data set [7], the system named is C6 gliomas. Kind of data set: Survival of rats with intracerebral C6 glioma. It is filed as in vivo, rat. From the text:
FIG. 11—Anti-Glioma Therapy/Percent Survival. […] Based on survival data obtained from FIG. 10.

Data set [8] deals with c-MET (Homo sapiens, UniProt P08581). Nature of the data set: c-MET inhibition.
c-MET, sequence (P08581 25-1390): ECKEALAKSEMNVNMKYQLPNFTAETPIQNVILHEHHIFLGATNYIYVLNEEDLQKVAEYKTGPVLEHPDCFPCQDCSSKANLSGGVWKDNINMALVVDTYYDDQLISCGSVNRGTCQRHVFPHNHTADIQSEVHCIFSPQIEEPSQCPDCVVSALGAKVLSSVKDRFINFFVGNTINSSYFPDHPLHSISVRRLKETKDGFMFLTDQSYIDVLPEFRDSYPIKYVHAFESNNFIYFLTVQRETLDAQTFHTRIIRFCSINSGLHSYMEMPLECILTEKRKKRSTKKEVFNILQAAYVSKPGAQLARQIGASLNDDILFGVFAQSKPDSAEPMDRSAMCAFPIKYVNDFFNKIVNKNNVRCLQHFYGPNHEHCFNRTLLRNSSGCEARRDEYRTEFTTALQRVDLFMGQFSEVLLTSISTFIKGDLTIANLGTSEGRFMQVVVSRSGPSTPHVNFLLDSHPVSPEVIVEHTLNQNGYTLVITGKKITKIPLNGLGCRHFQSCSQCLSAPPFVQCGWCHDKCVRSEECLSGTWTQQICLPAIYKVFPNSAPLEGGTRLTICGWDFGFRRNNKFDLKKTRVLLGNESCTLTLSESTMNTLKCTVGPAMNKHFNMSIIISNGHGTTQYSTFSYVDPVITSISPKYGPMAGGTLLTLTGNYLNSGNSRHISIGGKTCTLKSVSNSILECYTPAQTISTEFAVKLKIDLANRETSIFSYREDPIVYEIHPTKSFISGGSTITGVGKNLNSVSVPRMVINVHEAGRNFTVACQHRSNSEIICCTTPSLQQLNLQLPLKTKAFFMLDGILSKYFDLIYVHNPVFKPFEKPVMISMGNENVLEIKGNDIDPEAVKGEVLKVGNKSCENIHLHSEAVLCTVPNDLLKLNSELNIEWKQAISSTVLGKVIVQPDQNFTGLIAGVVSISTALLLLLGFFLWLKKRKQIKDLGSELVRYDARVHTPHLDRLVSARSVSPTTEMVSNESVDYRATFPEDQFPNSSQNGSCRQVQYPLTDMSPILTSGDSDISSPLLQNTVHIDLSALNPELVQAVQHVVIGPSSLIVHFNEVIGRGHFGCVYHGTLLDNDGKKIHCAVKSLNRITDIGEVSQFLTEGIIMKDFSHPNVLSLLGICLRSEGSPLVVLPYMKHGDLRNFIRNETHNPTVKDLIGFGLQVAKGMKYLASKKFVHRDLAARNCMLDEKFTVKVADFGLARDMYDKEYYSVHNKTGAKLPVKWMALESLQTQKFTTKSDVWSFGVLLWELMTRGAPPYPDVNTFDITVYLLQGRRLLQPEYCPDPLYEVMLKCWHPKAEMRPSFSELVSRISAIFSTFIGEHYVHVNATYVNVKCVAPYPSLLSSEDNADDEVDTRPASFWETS
Data set [9] concerns F98 gliomas. Kind of data set: F98 glioma growth in rats monitored by T2-weighted MRI. It is filed as in vivo, rat. Particulars: PBN five days prior to intracerebral cell implantation. The protocol: as §1, §2
For data set [10] the following is noted: cited from earlier work.
Setting [11] is: PBN started 5 days before surgery.

With `CC(C)(C)[N+]([O-])=Cc1ccc(O)cc1` [4-hydroxy-PBN, 4-hydroxyphenyl N-tert-butylnitrone], the “animals with decrease in tumor growth and angiogenesis” value in data set [1] (C6 gliomas, morphology and angiography data) was 2 of 5. Moreover, the “animals with suppressed and recessed tumor growth” value in data set [2] (75 mg/kg/day in drinking water from 5 days prior to implantation, n=5) turned out to be 40%.
Take `CC(C)(C)[N+]([O-])=Cc1ccccc1` [PBN, phenyl N-tert-butyl nitrone]: in [3], the “histology (H&E), tumor cells” value is listed as “no evidence of tumor cells”. Moreover, the “normalized tumor arterial blood volumes” value in data set [1] (C6 glioma, PBN 5 days prior to cell implantation, quantitative MR angiography) is recorded as “suppression and/or a decrease in blood volumes”. The “changes in angiogenesis (angiograms)” value in data set [1] (C6 gliomas, Example 2, qualitative MR angiography) was “did not seem to induce changes in angiogenesis”. In [4], the “induction of HIF-1α” value is reported as “inhibits the induction of HIF-1α”. Moreover, the “induction of HIF-1α” value in data set [5] is listed as “inhibits the induction of HIF-1α”. In addition, in data set [6], the “NAA levels compared to choline (Cho) levels” value was “increase to normal levels” and the “lipid levels compared to creatine (Cr) levels” value is “decrease to normal levels”. Moreover, the “rats surviving longer than 40 days (study end-point)” value in data set [7] (PBN 5 days prior to C6 cell implantation) is “Eighty”. In addition, in data set [7] (PBN 14 days after C6 cell implantation), the “rats surviving longer than 40 days” value amounted to 40%. Besides, the c-MET inhibition result in data set [8] is on record as “inhibits c-MET”. The glioma development entry in data set [9] is reported as “not develop in all rats”. Also, the tissue distribution entry in data set [10] (rat, in vivo) is “readily and rapidly distributed almost equally to all tissues”. Besides, the half-life entry in data set [10] (rats) is reported as “about 132 minutes”. This compound returned a doubling time in data set [2] (PBN 75 mg/kg/day in drinking water started on the day of surgery or 5 days after) of 2.3 to 2.4 days. In [2] (setting [11]), the doubling time came to 4.1 days and the maximum tumor volume was 50 mm^3. The “tumor course after maximal volume” value in data set [2] (PBN started on the day of surgery or 5 days after) is recorded as “the tumor starts to regress until it almost completely disappears”. Further, in data set [2] (PBN starting 14 days after cell implantation, tumors >50 mm3), the “animals with recession of tumor / eradication of further tumor formation” value amounted to 40%. Besides, the glioma growth outcome in data set [2] (continuous PBN starting 5 days prior to cell implantation, n=5) is recorded as “recession to no tumor in all animals studied; also recorded: either not develop or recede once intially formed in all rats”.
